The text below walks through data of patent US20030220386A1, “Delta 1-pyrrolines for use as pesticides” (priority 2000, published 2003).

Data set [1] is described as follows: logP determination by HPLC (reversed-phase C 18), EEC Directive 79/831 Annex V.A8. The note with it: reversed-phase C18 HPLC column, pH 2.3, 0.1% aqueous phosphoric acid/acetonitrile, 43° C., read-out: log P (pH 2.3). It is filed as physicochemical. As for the experimental part: The logP values given in the tables and preparation examples above are determined in accordance with EEC Directive 79/831 Annex V.A8 by HPLC (High Performance Liquid Chromatography) using a reversed-phase column (C 18). Temperature: 43° C.
In the acidic range, the determination is carried out at pH 2.3 using the mobile phases 0.1% aqueous phosphoric acid and acetonitrile; linear gradient from 10% acetonitrile to 90% acetonitrile.
In the neutral range, the determination is carried out at pH 7.5 using the mobile phases 0.01 molar aqueous phosphate buffer solution and acetonitrile; linear gradient from 10% acetonitrile to 90% acetonitrile.
Calibration is carried out using unbranched alkan-2-ones (of 3 to 16 carbon atoms) with known logP values (determination of the logP values by the retention times using linear interpolation between two successive alkanones).

Data set [2] relates to greenhouse red spider mite (Tetranychus urticae). Description: Tetranychus test (OP-resistant/dip treatment). The data set is classed as in vivo. Particulars: 100 ppm, bean plants dipped. As for the experimental part: (§1) After the desired period of time, the activity in % is determined.
Data set [3] concerns fruit tree spider mite (Panonychus ulmi). Description: Panonychus test. It is filed as in vivo. The note with it: 200 ppm, plum trees sprayed. As for the experimental part:
as §1

The test system of data set [4] is peach aphid (Myzus persicae). The data set can be described thus: Myzus test. The data set is classed as in vivo. The note with it: 500 ppm, cabbage leaves dipped.
The test system of data set [5] is larvae of the armyworm (Spodoptera frugiperda). The data set can be described thus: Spodoptera frugiperda test. The data set is classed as in vivo. Particulars: cabbage leaves dipped.
The subject of data set [6] is larvae of the mustard beetle (Phaedon cochleariae). Description: Phaedon larvae test. Particulars: 1000 ppm, cabbage leaves dipped.
Data set [7] concerns cotton aphid (Aphis gossypii). The data set can be described thus: Aphis gossypii test. It is filed as in vivo. The note with it: 100 ppm, cotton leaves dipped.
Data set [8] deals with caterpillars of the diamondback moth (Plutella xylostella). The data set can be described thus: Plutella test. The data set is classed as in vivo. Particulars: cabbage leaves dipped.
Data set [9] concerns Amblyomma hebraeum nymphs. Description: Test with polyphagous tick nymphs, dip treatment. It is filed as in vivo. The note with it: nymphs immersed for 1 minute; after 4 weeks. The method, then: (§2) 20 mg of active compound are dissolved in one ml of dimethyl sulphoxide. To prepare a suitable formulation, the solution of active compound is diluted with water to the concentration desired in each case.
10 nymphs which have sucked themselves full are immersed for 1 minute into the preparation of active compound to be tested. The animals are transferred to Petri dishes (Ø 9.5 cm) fitted with filter discs and covered. After 4 weeks of storage in a climatized room, the mortality is determined.
100% means that none of the animals has undergone normal ecdysis. 0% means that all animals have undergone ecdysis.

In another data set the test system is Lucilia cuprina larvae. The data set can be described thus: Blowfly larvae test/Development-inhibitory action. The data set is classed as in vivo. The note with it: 100 ppm; mortality of the larvae after 48 hours. The method, then: as §2
About 20 Lucilia cuprina larvae are introduced into a test tube which contains about 1 cm^3 of horsemeat and 0.5 ml of the preparation of active compound to be tested. The activity of the preparation of active compound is determined after 48 hours as the mortality of the larvae in %.
The test tubes are then transferred into a beaker whose bottom is covered with sand. After a further 12 days, the test tubes are removed and the pupae and flies are counted. The development-inhibitory action is stated as inhibition of hatching in % (ratio of pupae to flies that have hatched) after 1.5 times the development period of an untreated control.

Data set [10] relates to larvae of the armyworm (Spodoptera exigua). Description: Spodoptera exigua test. The data set is classed as in vivo. Particulars: 500 ppm, cabbage leaves dipped.
The test system of data set [11] is Heliothis virescens caterpillars. Description: Heliothis virescens test. The data set is classed as in vivo. Particulars: 5 ppm, soya bean shoots dipped.
The test system of the next data set is Meloidogyne incognita. Description: Meloidogyne test. The data set is classed as in vivo. Particulars: 20 ppm, nematicidal action by formation of galls on lettuce roots. The method, then:
Vessels are filled with sand, solution of active compound, Meloidogyne incognita egg/larvae suspension and lettuce seeds. The lettuce seeds germinate and the plants develop. On the roots, galls are formed.
After the desired period of time, the nematicidal action is determined in % by the formation of galls. 100% means that no galls were found; 0% means that the number of galls on the treated plants corresponds to that of the untreated control.

Take `O=S(=O)(Oc1ccc([C@H]2CCC(c3c(F)cccc3F)=N2)cc1)C(F)(F)F` [I-2, (2R)-4-[5-(2,6-Difluorophenyl)-3,4-dihydro-2H-pyrrol-2-yl]phenyl trifluoromethanesulphonate]: in [1], the chromatographic logP came out at 3.55. Also, the “Kill rate in % after 7 days” value in [2] is on record as 98%; in data set [3], 98%; in data set [6] it was 100%. In addition, the “Kill rate in % after 6 days” value in data set [4] turned out to be 98%; in data set [5] (500 ppm), 95%; in data set [7], 90%; in [8] (500 ppm), 100%; in data set [10], 100%. The “activity (mortality / no normal ecdysis)” value in data set [9] is recorded as “good activity”. For the same molecule, the “Action in % after 48 hours” value with Lucilia cuprina larvae was determined as 100%.
Turning to `O=S(=O)(Oc1ccc(-c2ccc([C@H]3CCC(c4c(F)cccc4F)=N3)cc2)cc1)C(F)(F)F` [I-5, 4′-[(2R)-5-(2,6-difluorophenyl)-3,4-dihydro-2H-pyrrol-2-yl]-1,1′-biphenyl-4-yl trifluoromethanesulphonate], in data set [1], the chromatographic logP was found to be 4.27. Further, the “Kill rate in % after 6 days” value in [11], in data set [5] (1000 ppm) and in [8] (5 ppm) was 100% each time. The “Kill rate in % after 14 days” value with Meloidogyne incognita is 100%. The “Kill rate in % after 7 days” value in data set [6] is 100%. Also, the “activity (mortality / no normal ecdysis)” value in [9] is listed as “good activity”. The “Action in % after 48 hours” value with Lucilia cuprina larvae is given as 100%.
